In ChEMBL document CHEMBL1126970, “Development of 1,4-benzodiazepine cholecystokinin type B antagonists” (J Med Chem, 1993):

Target: T1, Cholecystokinin receptor type A (Rattus norvegicus, UniProt P30551)
T1 sequence (P30551 whole entry): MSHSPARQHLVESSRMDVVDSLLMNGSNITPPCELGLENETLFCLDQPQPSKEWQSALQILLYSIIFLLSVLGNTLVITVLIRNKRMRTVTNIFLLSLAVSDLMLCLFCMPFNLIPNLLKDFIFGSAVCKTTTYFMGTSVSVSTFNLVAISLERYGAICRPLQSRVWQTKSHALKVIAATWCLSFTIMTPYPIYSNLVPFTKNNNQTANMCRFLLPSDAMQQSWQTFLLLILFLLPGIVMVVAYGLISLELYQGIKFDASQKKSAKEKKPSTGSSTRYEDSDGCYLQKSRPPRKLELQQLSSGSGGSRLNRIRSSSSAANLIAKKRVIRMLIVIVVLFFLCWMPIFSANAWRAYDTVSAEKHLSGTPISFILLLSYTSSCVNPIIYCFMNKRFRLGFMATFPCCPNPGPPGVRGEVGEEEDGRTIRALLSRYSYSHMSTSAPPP
Experiment: Inhibition of binding of [125I]CCK-8 to cholecystokinin type A receptor in rat pancreatic tissue

SMILES | IC50
COC(=O)c1cccc(NC(=O)N[C@@H]2N=C(c3ccccc3)c3ccccc3N(C)C2=O)c1 | 1200 nM
C#Cc1cccc(NC(=O)NC2N=C(c3ccccc3)c3ccccc3N(C)C2=O)c1 (stereo not drawn) | 402 nM
Cc1cccc(NC(=O)NC2N=C(c3ccccc3)c3cccnc3N(C)C2=O)c1 (racemic) | 104 nM
Cc1cccc(NC(=O)NC2N=C(c3ccccc3)c3ccccc3N(CC(=O)Nc3ccncc3)C2=O)c1 (racemic) | 1100 nM
Cc1ccc(NC(=O)NC2N=C(c3ccccc3)c3ccccc3N(CC(=O)Nc3ccncc3)C2=O)cc1 (racemic) | 4000 nM
CC(=O)c1cccc(NC(=O)NC2N=C(c3ccccc3)c3ccccc3N(C)C2=O)c1 (stereo not drawn) | 1300 nM
CN1C(=O)C(NC(=O)Nc2cccc3ccccc23)N=C(c2ccccc2)c2ccccc21 (racemic) | 68 nM
CN1C(=O)[C@@H](NC(=O)c2ccc(C(F)(F)F)cc2)N=C(c2ccccc2)c2ccccc21 | 1300 nM
Cc1cccc(NC(=O)N[C@@H]2N=C(c3ccccc3)c3ccccc3NC2=O)c1 | 3800 nM
Cc1cccc(NC(=O)NC2N=C(c3ccccn3)c3ccccc3N(C)C2=O)c1 (stereo not drawn) | 65 nM
COc1ccc(NC(=O)NC2N=C(c3ccccc3)c3ccccc3N(C)C2=O)cc1 (racemic) | 165 nM
CN1C(=O)C(NC(=O)Nc2cccc(C#N)c2)N=C(c2ccccc2)c2ccccc21 (stereo not drawn) | 3100 nM
O=C(Nc1ccc(Cl)cc1)NC1N=C(c2ccccc2)c2ccccc2N(Cc2nnn[nH]2)C1=O (racemic) | 2100 nM
CC(=O)Oc1cccc(NC(=O)N[C@@H]2N=C(c3ccccc3)c3ccccc3N(C)C2=O)c1 | 6600 nM
O=C(Nc1ccc(Cl)cc1)NC1N=C(c2ccccc2)c2ccccc2N(CC(=O)N2CCCC2)C1=O (racemic) | 1000 nM
CN1C(=O)C(NC(=O)Nc2ccc3c(c2)CCC3)N=C(c2ccccc2)c2ccccc21 (stereo not drawn) | 900 nM
Cc1ccc(NC(=O)NC2N=C(c3ccccc3)c3ccccc3N(C)C2=O)cc1C (stereo not drawn) | 310 nM
CN1C(=O)[C@@H](NC(=O)Nc2ccccc2Cl)N=C(c2ccccc2)c2ccccc21 | 0.26 nM

SMILES | IC50
Cc1cc(C)cc(NC(=O)NC2N=C(c3ccccc3)c3ccccc3N(C)C2=O)c1 (stereo not drawn) | 720 nM
COc1cccc(NC(=O)NC2N=C(c3ccccc3)c3ccccc3N(CCN(C)C)C2=O)c1 (racemic) | 3090 nM
CN1C(=O)C(NC(=O)NCc2cccc(C(C)(C)O)c2)N=C(c2ccccc2)c2ccccc21 (stereo not drawn) | 406 nM
CN1C(=O)[C@H](NC(=O)NCc2cccc(O)c2)N=C(c2ccccc2)c2ccccc21 | 21 nM
CN1C(=O)C(NC(=O)Nc2cccc(CNC(=O)OC(C)(C)C)c2)N=C(c2ccccc2)c2ccccc21 (stereo not drawn) | 200 nM
Cc1cccc(NC(=O)NC2N=C(c3ccccc3)c3cnccc3N(C)C2=O)c1 (racemic) | 61.4 nM
C[C@H](NC(=O)NC1N=C(c2ccccc2)c2ccccc2N(C)C1=O)c1ccccc1 (mixture of isomers) | 430 nM
CN1C(=O)[C@H](NC(=O)Nc2ccccc2Cl)N=C(c2ccccc2)c2ccccc21 | 410 nM
Cc1cccc(NC(=O)NC2N=C(c3ccccc3)c3ccccc3N(Cc3n[nH]c(C)n3)C2=O)c1 (racemic) | 566 nM
CN1C(=O)[C@@H](NC(=O)Nc2ccc(Cl)cc2)N=C(c2ccccc2)c2ccccc21 | 110 nM
COc1cccc(NC(=O)NC2N=C(c3ccccc3)c3ccccc3N(CC(=O)N3CCCC3)C2=O)c1 (racemic) | 170 nM
CN1C(=O)C(NC(=O)Nc2ccc(Cl)cc2)N=C(c2ccccc2)c2ccccc21 (racemic) | 1200 nM
O=C(Nc1ccc(Cl)cc1)N[C@H]1N=C(c2ccccc2)c2ccccc2N(CC(=O)N2CCCC2)C1=O | 2500 nM
C=Cc1cccc(NC(=O)N[C@@H]2N=C(c3ccccc3)c3ccccc3N(C)C2=O)c1 | 1670 nM
CN1C(=O)C(NC(=O)Nc2ccc3ccccc3n2)N=C(c2ccccc2)c2ccccc21 (stereo not drawn) | 180 nM
COc1cccc(NC(=O)NC2N=C(c3ccccc3)c3ccccc3N(CC(=O)N3CCN(C)CC3)C2=O)c1 (racemic) | 1400 nM
Cc1cccc(NC(=O)N[C@H]2N=C(c3ccccc3)c3ccccc3N(C)C2=O)c1 | 4.7 nM
CN1C(=O)C(NC(=O)Nc2ccc(C(=O)O)cc2)N=C(c2ccccc2)c2ccccc21 (racemic) | > 10000 nM

Organism: Cavia porcellus
Experiment: Selectivity ratio between CCK-B and CCK-A receptor
Design: reference not given here

SMILES | Selectivity ratio
COC(=O)c1cccc(NC(=O)N[C@@H]2N=C(c3ccccc3)c3ccccc3N(C)C2=O)c1 | 150
CN1C(=O)C(NC(=O)NCc2ccccc2)N=C(c2ccccc2)c2ccccc21 (racemic) | 0.6
COc1cccc(NC(=O)N[C@H]2N=C(c3ccccc3)c3ccccc3N(C)C2=O)c1 | < 0.01
C#Cc1cccc(NC(=O)NC2N=C(c3ccccc3)c3ccccc3N(C)C2=O)c1 (stereo not drawn) | 18
CN1C(=O)C(NC(=O)Nc2cccc(Br)c2)N=C(c2ccccc2)c2ccccc21 (racemic) | 1
CN1C(=O)C(NC(=O)Nc2ccc(F)cc2)N=C(c2ccccc2)c2ccccc21 (stereo not drawn) | 0.7
Cc1cccc(NC(=O)NC2N=C(c3ccccc3)c3cccnc3N(C)C2=O)c1 (racemic) | < 0.01
Cc1cccc(NC(=O)NC2N=C(c3ccccc3)c3ccccc3N(CC(=O)Nc3ccncc3)C2=O)c1 (racemic) | 23
Cc1ccc(NC(=O)NC2N=C(c3ccccc3)c3ccccc3N(CC(=O)Nc3ccncc3)C2=O)cc1 (racemic) | 21
CC(=O)c1cccc(NC(=O)NC2N=C(c3ccccc3)c3ccccc3N(C)C2=O)c1 (stereo not drawn) | 361
O=C(CN1C(=O)C(NC(=O)Nc2ccc(Cl)cc2)N=C(c2ccccc2)c2ccccc21)NCc1ccccc1 (racemic) | 24
CN1C(=O)C(NC(=O)Nc2cccc(Cl)c2)N=C(c2ccccc2)c2ccccc21 (racemic) | 1
CCNC(=O)CN1C(=O)C(NC(=O)Nc2ccc(Cl)cc2)N=C(c2ccccc2)c2ccccc21 (racemic) | 191
CN1C(=O)C(NC(=O)Nc2cccc3ccccc23)N=C(c2ccccc2)c2ccccc21 (racemic) | 0.9
CN1C(=O)C(NC(=O)Nc2ccccc2[N+](=O)[O-])N=C(c2ccccc2)c2ccccc21 (racemic) | < 0.01
CN1C(=O)[C@@H](NC(=O)c2ccc(C(F)(F)F)cc2)N=C(c2ccccc2)c2ccccc21 | 0.3
Cc1cccc(NC(=O)N[C@@H]2N=C(c3ccccc3)c3ccccc3NC2=O)c1 | 95
Cc1cccc(NC(=O)NC2N=C(c3ccccn3)c3ccccc3N(C)C2=O)c1 (stereo not drawn) | 1
O=C(Nc1ccc(Cl)cc1)NC1N=C(c2ccccc2)c2ccccc2N(CC(=O)OCc2ccccc2)C1=O (racemic) | 30
CN1C(=O)C(NC(=O)Nc2ccc(Cl)c(Cl)c2)N=C(c2ccccc2)c2ccccc21 (racemic) | 0.4
COc1ccc(NC(=O)NC2N=C(c3ccccc3)c3ccccc3N(C)C2=O)cc1 (racemic) | 6
COc1cccc(NC(=O)N[C@@H]2N=C(c3ccccc3)c3ccccc3N(C)C2=O)c1 | 272
CN1C(=O)C(NC(=O)Nc2cccc(C#N)c2)N=C(c2ccccc2)c2ccccc21 (stereo not drawn) | 115

SMILES | Selectivity ratio
CN1CCN(C(=O)CN2C(=O)C(NC(=O)Nc3ccc(Cl)cc3)N=C(c3ccccc3)c3ccccc32)CC1 (racemic) | 1500
CC(=O)Oc1cccc(NC(=O)N[C@@H]2N=C(c3ccccc3)c3ccccc3N(C)C2=O)c1 | 13
O=C(Nc1ccc(Cl)cc1)NC1N=C(c2ccccc2)c2ccccc2N(CC(=O)N2CCCC2)C1=O (racemic) | 625
CN1C(=O)C(NC(=O)Nc2ccc3c(c2)CCC3)N=C(c2ccccc2)c2ccccc21 (stereo not drawn) | 333
Cc1ccc(NC(=O)NC2N=C(c3ccccc3)c3ccccc3N(C)C2=O)cc1C (stereo not drawn) | 14
CN1C(=O)[C@@H](NC(=O)Nc2ccccc2Cl)N=C(c2ccccc2)c2ccccc21 | < 0.01
CN1C(=O)C(NC(=O)Nc2cccc(F)c2)N=C(c2ccccc2)c2ccccc21 (racemic) | 0.2
Cc1cc(C)cc(NC(=O)NC2N=C(c3ccccc3)c3ccccc3N(C)C2=O)c1 (stereo not drawn) | 2.7
COc1cccc(NC(=O)NC2N=C(c3ccccc3)c3ccccc3N(CCN(C)C)C2=O)c1 (racemic) | 16
COc1cccc(NC(=O)NC2N=C(c3ccccc3)c3ccccc3N(C)C2=O)c1 (racemic) | 2
CN1C(=O)C(NC(=O)NCc2cccc(C(C)(C)O)c2)N=C(c2ccccc2)c2ccccc21 (stereo not drawn) | 69
CN1C(=O)[C@H](NC(=O)NCc2cccc(O)c2)N=C(c2ccccc2)c2ccccc21 | 1
CN1C(=O)C(NC(=O)Nc2cccc(CNC(=O)OC(C)(C)C)c2)N=C(c2ccccc2)c2ccccc21 (stereo not drawn) | 1
Cc1cccc(NC(=O)NC2N=C(c3ccccc3)c3cnccc3N(C)C2=O)c1 (racemic) | 0.1
C[C@H](NC(=O)NC1N=C(c2ccccc2)c2ccccc2N(C)C1=O)c1ccccc1 (mixture of isomers) | 0.04
CN1C(=O)[C@H](NC(=O)Nc2ccccc2Cl)N=C(c2ccccc2)c2ccccc21 | 6.7
Cc1cccc(NC(=O)NC2N=C(c3ccccc3)c3ccccc3N(Cc3n[nH]c(C)n3)C2=O)c1 (racemic) | 58
CCOC(=O)CCN1C(=O)C(NC(=O)Nc2ccc(Cl)cc2)N=C(c2ccccc2)c2ccccc21 (racemic) | 204
CN1C(=O)[C@@H](NC(=O)Nc2ccc(Cl)cc2)N=C(c2ccccc2)c2ccccc21 | 0.1
COc1cccc(NC(=O)NC2N=C(c3ccccc3)c3ccccc3N(CC(=O)N3CCCC3)C2=O)c1 (racemic) | 708
CN1C(=O)C(NC(=O)Nc2ccc(Cl)cc2)N=C(c2ccccc2)c2ccccc21 (racemic) | 15
O=C(Nc1ccc(Cl)cc1)N[C@H]1N=C(c2ccccc2)c2ccccc2N(CC(=O)N2CCCC2)C1=O | 192
CN1C(=O)C(NC(=O)NC2CCCCC2)N=C(c2ccccc2)c2ccccc21 (racemic) | 0.8

SMILES | Selectivity ratio
CN1C(=O)C(NC(=O)Nc2ccccc2)N=C(c2ccccc2)c2ccccc21 (racemic) | 0.26
C=Cc1cccc(NC(=O)N[C@@H]2N=C(c3ccccc3)c3ccccc3N(C)C2=O)c1 | 48
CN1C(=O)C(NC(=O)Nc2ccc3ccccc3n2)N=C(c2ccccc2)c2ccccc21 (stereo not drawn) | 7
COc1cccc(NC(=O)NC2N=C(c3ccccc3)c3ccccc3N(CC(=O)N3CCN(C)CC3)C2=O)c1 (racemic) | 318
CCN(CC)C(=O)CN1C(=O)C(NC(=O)Nc2ccc(Cl)cc2)N=C(c2ccccc2)c2ccccc21 (racemic) | 667
O=C(O)CN1C(=O)C(NC(=O)Nc2ccc(Cl)cc2)N=C(c2ccccc2)c2ccccc21 (racemic) | 0.77
CN1C(=O)C(NC(=O)Nc2ccc(Br)cc2)N=C(c2ccccc2)c2ccccc21 (racemic) | 2.7
COc1cc(NC(=O)NC2N=C(c3ccccc3)c3ccccc3N(C)C2=O)cc(OC)c1 (racemic) | 0.1
CN1C(=O)C(NC(=O)Nc2ccc(Cl)cc2Cl)N=C(c2ccccc2)c2ccccc21 (racemic) | 0.01
CN1C(=O)C(NC(=O)Nc2ccc([N+](=O)[O-])cc2)N=C(c2ccccc2)c2ccccc21 (racemic) | 4.5
CN1C(=O)C(NC(=O)NC(C)(C)C)N=C(c2ccccc2)c2ccccc21 (racemic) | 0.2
COc1ccccc1NC(=O)NC1N=C(c2ccccc2)c2ccccc2N(C)C1=O (racemic) | 0.5
CN1C(=O)[C@H](NC(=O)Nc2cccc(Cl)c2)N=C(c2ccccc2)c2ccccc21 | 39
CCOC(=O)CN1C(=O)C(NC(=O)c2ccccc2Cl)N=C(c2ccccc2F)c2ccccc21 (racemic) | > 9
Cc1cccc(NC(=O)NC2N=C(c3ccccc3)c3ccccc3N(Cc3c[nH]cn3)C2=O)c1 (racemic) | 1
CCOC(=O)CN1C(=O)C(NC(=O)Nc2ccc(Cl)cc2)N=C(c2ccccc2)c2ccccc21 (racemic) | 370
CN1C(=O)[C@H](NC(=O)Nc2cccc(Br)c2)N=C(c2ccccc2)c2ccccc21 | 221
Cc1cccc(NC(=O)NC2N=C(c3ccccc3)c3ccccc3N(Cc3ncc[nH]3)C2=O)c1 (racemic) | 4
O=C(Nc1ccc(Cl)cc1)NC1N=C(c2ccccc2)c2ccccc2N(Cc2nn[nH]n2)C1=O (racemic) | 4
CN1C(=O)C(NC(=O)Nc2cccc([N+](=O)[O-])c2)N=C(c2ccccc2)c2ccccc21 (racemic) | 3
CN1C(=O)[C@H](NC(=O)c2ccc(C(F)(F)F)cc2)N=C(c2ccccc2)c2ccccc21 | 35
